Converted amounts (≈) assume the structure as drawn. “And” between values parts separate entries of the source, which are not always exact repeats. Identical values can stand only once.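 Cells were grown in 96-well plates and exposed to each compound for 48 hours at five concentrations; endpoints were interpolated linearly between bracketing concentrations, or set to the highest concentration if not reached. The concentration for 50% growth inhibition is given as GI50. TGI marks complete inhibition of growth.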
Experiments:
Test in all cases: NCI tumour cell line growth inhibition, 48 h
[1] = system: DMS 114 small cell lung
[2] = system: DMS 273 small cell lung
[3] = system: HOP-18 NSCLC
[4] = system: KM20L2 colon
[5] = system: XF 498 CNS
[6] = system: MDA-MB-231 breast
[7] = system: MDA-MB-435
[8] = system: RXF-631 renal
[9] = system: MDA-N

CC1=CC(=O)c2[nH]c3ccccc3c2C1=O
TGI [1]: 7.82 µM
GI50 [2]: 4.26 µM
TGI [2]: 7.83 µM
GI50 [3]: 3.35 µM
TGI [3]: 7.5 µM
TGI [4]: > 25 µM
GI50 [5]: 4.38 µM
TGI [5]: 7.99 µM

Cn1cc(/C=C2\C(=O)Nc3cccnc32)c2ccccc21
GI50 [6]: 11.1 µM
TGI [6]: > 25 µM
GI50 [7]: 18 µM
TGI [7]: > 25 µM

C/C(=N\n1c(N)c(C#N)c(-c2ccc(Cl)cc2)c(C#N)c1=O)c1cccnc1
GI50 [6]: > 100 µM
TGI [6]: > 100 µM
GI50 [7]: > 100 µM
TGI [7]: > 100 µM

C(=C1/CCCCC([n+]2ccccc2)=N1)/c1ccccc1
TGI [1]: > 100 µM
TGI [2]: > 100 µM
TGI [3]: > 100 µM
TGI [4]: > 100 µM

C[P+](C)(CC(F)(F)F)c1ccccc1
TGI [1]: > 100 µM
TGI [2]: > 100 µM
TGI [3]: > 100 µM
TGI [4]: > 100 µM

C[Si](C)(C)[C@@]1([Se]c2ccccc2)CC[C@@H]1C(=O)c1ccccc1
TGI [1]: > 100 µM
TGI [2]: > 100 µM
TGI [4]: > 100 µM
TGI [8]: > 100 µM

O=C1CCC(c2ccccc2)(c2ccccc2)CC1
TGI [6]: > 100 µM
TGI [7]: > 100 µM
TGI [9]: > 100 µM

O=C(O)c1oc2ccc([N+](=O)[O-])c3c2c1CCC3
TGI [1]: > 100 µM
TGI [2]: > 100 µM
TGI [3]: > 100 µM
TGI [4]: > 100 µM
TGI [5]: > 100 µM

O=C1CCCC2COc3ccc(O)c1c32 (centres undefined)
TGI [1]: > 100 µM
TGI [2]: > 100 µM
TGI [4]: > 100 µM
TGI [8]: > 100 µM

Fc1ccc(-c2c(-c3ccncc3)n(CCN3CCOCC3)c3cccnc23)cc1
GI50 [6]: > 25 µM
TGI [6]: > 25 µM
GI50 [7]: > 25 µM
TGI [7]: > 25 µM

NC(=NC1C2CC3CC(C2)CC1C3)Nc1ccc(I)cc1 (centres undefined)
GI50 [6]: 3.31 µM
TGI [6]: 11 µM
GI50 [7]: 3.8 µM
TGI [7]: 13.6 µM

Cc1cc(Br)cc(C)c1NC(=O)C(=O)C(C(=O)c1ccc(Cl)c(Cl)c1)C1OC(=O)c2ccccc21 (centres undefined)
TGI [1]: > 100 µM
TGI [2]: > 100 µM
TGI [4]: > 100 µM
TGI [8]: > 100 µM

CCOc1ccc(N2C(N)=NC(N)=NC2(C)C)cc1
GI50 [6]: > 100 µM
TGI [6]: > 100 µM
GI50 [7]: 38.8 µM
TGI [7]: > 100 µM

Cc1cc(I)cc(CN(C)CCCCN2CCCC2)c1O
GI50 [6]: 18.8 µM
TGI [6]: 51.1 µM
GI50 [7]: 11.1 µM
TGI [7]: 27.9 µM

CCn1cc(C2NC(=O)c3cc(F)ccc3N2)c2cccc(Cl)c21 (centres undefined)
GI50 [6]: 0.503 µM
TGI [6]: > 100 µM
GI50 [7]: 0.0367 µM
TGI [7]: 0.142 µM

O=C(O)c1c(Cl)c(Cl)c(Cl)c(Cl)c1-c1c2cc(I)c(=O)c(I)c-2oc2c(I)c(O)c(I)cc12
GI50 [6]: 22.5 µM and 26.7 µM
TGI [6]: 82.8 µM and 75.5 µM
GI50 [7]: 62.9 µM and 41.4 µM
TGI [7]: 93 µM

O=C1CCCc2c(O)ccc(O)c21
TGI [1]: 74.9 µM
TGI [2]: > 100 µM
TGI [3]: > 100 µM
TGI [4]: > 100 µM

COc1cc(C(=O)c2c(-c3ccccc3)oc3ccccc23)cc(OC)c1O
GI50 [6]: 4.24 µM
TGI [6]: 22.5 µM
GI50 [7]: 0.285 µM
TGI [7]: 0.777 µM

Nc1ccccc1C#Cc1ccccc1C#CCCCCO
GI50 [6]: 16.2 µM
TGI [6]: 37 µM
GI50 [7]: 10.3 µM
TGI [7]: 53.9 µM

C[C@H]1CC(=O)[C@@]2(O)C#C/C=C\C#C[C@@H]3Nc4c(cc(O)c5c4C(=O)c4ccccc4C5=O)[C@]24O[C@]314
TGI [6]: > 25 µM
GI50 [7]: 0.0196 µM
TGI [7]: 0.219 µM and 0.262 µM
TGI [9]: 0.26 µM

COCCOC(=O)CCn1cc(F)c(=O)[nH]c1=O
GI50 [6]: > 150 µg/mL
TGI [6]: > 150 µg/mL
GI50 [7]: 5.67 µg/mL
TGI [7]: > 150 µg/mL
GI50 [9]: 2.29 µg/mL (≈ 8.82 µM)
TGI [9]: > 150 µg/mL

N#CCc1nc2c(s1)C(=O)c1ccccc1C2=O
TGI [1]: 20.1 µM
TGI [2]: 29.9 µM
TGI [3]: 28.3 µM
TGI [4]: > 100 µM
TGI [8]: 42.7 µM

COc1cc(SC)ccc1C(=O)N1CCCC(C)C1 (centres undefined)
GI50 [6]: > 100 µM
TGI [6]: > 100 µM
GI50 [7]: > 100 µM
TGI [7]: > 100 µM

CN1C=CN(Cc2ccc(-c3ccccn3)nc2)[CH-]1.CN1C=CN(Cc2ccc(-c3ccccn3)nc2)[CH-]1.[Au+3]
GI50 [6]: 2.64 µM
TGI [6]: 15 µM
GI50 [7]: 2.97 µM
TGI [7]: 20.9 µM

CC(C)S(=O)(=O)n1c(N)nc2ccc(/C(=N/O)c3ccccc3)cc21
TGI [1]: 43.8 µM
TGI [2]: > 100 µM
TGI [4]: 31.8 µM

O=C(N/N=C\c1cc(Cl)ccc1O)N/N=C/c1cc(Cl)ccc1O
GI50 [6]: 4.3 µM
TGI [6]: > 100 µM
GI50 [7]: 1.36 µM
TGI [7]: > 100 µM

Cc1cc(C(=O)NCCN(C)C)c2nc3ccccc3nc2c1
TGI [1]: 14.4 µM
TGI [2]: > 100 µM
TGI [3]: > 88.8 µM
TGI [4]: 15.1 µM

Cc1ccc(C)c2sc3cc(=O)ccc-3nc12
TGI [1]: > 100 µM
TGI [2]: > 100 µM
TGI [3]: > 100 µM
TGI [4]: > 100 µM
TGI [8]: > 100 µM

CCCCCCCCSC(SCCCCCCCC)=C1C(=O)N(c2ccccc2)N=C1C
TGI [1]: 63.3 µM
TGI [2]: > 100 µM
TGI [3]: > 100 µM
TGI [4]: > 100 µM
TGI [8]: > 100 µM

O=C(/C=C/c1cccs1)Nc1ncc(Cc2ccccc2F)s1
GI50 [6]: 0.611 µM
TGI [6]: > 100 µM
GI50 [7]: 0.0312 µM
TGI [7]: 0.113 µM

CCCC/C(C)=N/NC(N)=S
TGI [1]: > 100 µM
TGI [3]: > 100 µM
TGI [4]: > 100 µM

COS(=O)CCOC(=O)c1ccccc1SSc1ccccc1C(=O)OCCS(=O)OC (centres undefined)
TGI [1]: 34.1 µM
TGI [2]: > 100 µM
TGI [3]: > 100 µM
TGI [4]: > 100 µM
TGI [5]: 62.8 µM

COc1ccc2c(c1)[n+]([O-])c(-c1ccc(Cl)c(Cl)c1)c(N)[n+]2[O-]
TGI [1]: 32.1 µM
TGI [2]: 66.7 µM
TGI [3]: > 100 µM
TGI [4]: > 100 µM
TGI [8]: 82.3 µM

CCOC(=O)c1cc2cc([N+](=O)[O-])ccc2oc1=O
TGI [6]: > 100 µM
TGI [7]: > 100 µM
TGI [9]: > 100 µM

— PubChem BioAssay (NCI)
